Data on seven compounds can be found in patent US20110195433A1 (priority 2007, published 2011).

For data set [1], the target named is T1, human KOR (Homo sapiens, UniProt P41145).
T1 construct: expressed in transfected cells; membranes
In words: biochemical. As to conditions: for Emax: read-out: Emax of decrease of basal GTPγS binding. (In general: GTPγS is a poorly hydrolysed GTP analogue; its binding reports G protein activation.)

Data set [2] addresses T2, mouse DOR (Mus musculus, UniProt P32300).
The target in data set [3] is T3, human MOR (Homo sapiens, UniProt P35372).
Data set [4] deals with T2, mouse DOR. In words: basal [35S]GTPγS binding in DOR cell membranes with or without agonist pretreatment. More on the design: expressed in transfected cells; membranes. The data set is classed as biochemical.
For data set [5], the target named is T3, human MOR. The class given is biochemical. More on the design: expressed in transfected cells; membranes.
Data set [6] relates to animals. In words: precipitated withdrawal jumping in animals. The class given is in vivo. As to conditions: compared with naloxone.

By Emax is commonly meant the size of the effect at its maximum, as opposed to the concentration needed.

“Also recorded” adds a separate entry of the source. Structures can show the parent of a compound that is named as a salt.

T2 sequence (P32300 whole entry): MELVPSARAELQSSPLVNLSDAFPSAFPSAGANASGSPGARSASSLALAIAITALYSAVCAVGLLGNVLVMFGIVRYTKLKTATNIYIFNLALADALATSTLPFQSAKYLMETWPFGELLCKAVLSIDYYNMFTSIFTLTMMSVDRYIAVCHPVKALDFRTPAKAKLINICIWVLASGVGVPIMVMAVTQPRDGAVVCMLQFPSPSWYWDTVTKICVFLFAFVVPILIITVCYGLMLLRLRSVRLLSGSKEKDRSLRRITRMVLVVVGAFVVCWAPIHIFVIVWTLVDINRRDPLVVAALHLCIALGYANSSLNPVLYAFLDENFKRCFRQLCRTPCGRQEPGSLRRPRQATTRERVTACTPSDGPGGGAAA
T3 sequence (P35372 whole entry): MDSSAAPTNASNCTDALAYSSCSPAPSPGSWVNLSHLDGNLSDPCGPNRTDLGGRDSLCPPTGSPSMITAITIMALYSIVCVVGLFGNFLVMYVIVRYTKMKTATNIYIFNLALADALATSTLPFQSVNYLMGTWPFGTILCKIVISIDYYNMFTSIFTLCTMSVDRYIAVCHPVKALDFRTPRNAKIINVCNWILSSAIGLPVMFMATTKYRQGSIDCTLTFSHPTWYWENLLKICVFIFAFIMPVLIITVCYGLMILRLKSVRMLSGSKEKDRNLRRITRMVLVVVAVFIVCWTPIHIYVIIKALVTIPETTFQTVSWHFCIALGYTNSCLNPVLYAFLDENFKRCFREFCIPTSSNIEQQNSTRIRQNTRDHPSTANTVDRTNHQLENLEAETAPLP
T1 sequence (P41145 whole entry): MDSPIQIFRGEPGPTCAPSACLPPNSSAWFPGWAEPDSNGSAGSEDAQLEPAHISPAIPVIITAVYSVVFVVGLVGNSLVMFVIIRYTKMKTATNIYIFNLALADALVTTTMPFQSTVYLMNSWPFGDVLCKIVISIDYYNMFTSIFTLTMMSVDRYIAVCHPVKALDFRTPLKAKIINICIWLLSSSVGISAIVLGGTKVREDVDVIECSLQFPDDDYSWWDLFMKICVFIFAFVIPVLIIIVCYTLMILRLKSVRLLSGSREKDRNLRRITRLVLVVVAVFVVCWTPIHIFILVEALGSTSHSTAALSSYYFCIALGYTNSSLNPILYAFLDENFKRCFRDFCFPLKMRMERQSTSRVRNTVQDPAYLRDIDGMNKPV

For `Oc1ccc2c3c1O[C@H]1c4[nH]c5c(c4C[C@@]4(O)[C@@H](C2)N(CC2CC2)CC[C@]314)C[C@@]1(O)[C@H]2Cc3ccc(O)c4c3[C@@]1(CCN2CC1CC1)[C@H]5O4` [nor-BNI, nor-binaltorphimine], in data set [1], the “change of inverse agonist effects after pretreatment” value (“change of inverse agonist effects” for short) is recorded as “increased”, the “pharmacological property at KOR” value is listed as “inverse agonists” and the Emax is approximately 10%.

[D-Pen2,D-Pen5]-enkephalin [DPDPE]: the “change of agonist Emax value after pretreatment” value in data set [2] is recorded as “decreased”.

As to `C[C@@H](NC(=O)[C@@H](N)Cc1ccc(O)cc1)C(=O)NCC(=O)N(C)[C@@H](Cc1ccccc1)C(=O)NCCO` [DAMGO, [D-Ala2,N-Me-Phe4,Gly5-ol]-enkephalin], the “change of agonist Emax value after pretreatment” value in data set [3] was “decreased”.

“N,N-diallyl-Tyr-Aib-Aib-Phe-Leu-OH [ICI 174,864]”: in data set [4] (DPDPE pre-exposure, DOR), the “change of inverse agonist effects” value is listed as “decreased”. Moreover, in data set [4] (morphine pretreatment, DOR), the “change of inverse agonist Emax after pretreatment” value is reported as “without affecting” and the “shift of inverse agonist dose-response curve after pretreatment” value is listed as “shifted the dose-response curve for ICI 174,864 to the left”.

With `O=C1C(=Cc2ccccc2)C[C@@]2(O)[C@H]3Cc4ccc(O)c5c4[C@@]2(CCN3CC2CC2)[C@H]1O5` [BNTX, 7-benzylidenenaltrexone], in data set [5], the “change of inverse agonist effects” value is “increased” and the “shift of inverse agonist dose-response curve after pretreatment” value is “shifted the dose-response curve of BNTX to the left”.

As for `Oc1ccc2c3c1O[C@H]1[C@H](O)CC[C@@]4(O)[C@@H](C2)N(CC2CC2)CC[C@]314` [6β-naltrexol], in data set [6], the precipitated withdrawal jumping result is “less withdrawal jumping than naloxone”. Also, the “antagonistic property against agonist-stimulated [35S]GTPγS binding” value in data set [2] (30 nM DPDPE, DOR membranes) is recorded as “full antagonists”. Also, in data set [4] (DPDPE-pretreated DOR membranes), the “inhibition of the inverse agonist effect of naloxone” value is reported as “inhibited”. Besides, the “pharmacological property at DOR” value in data set [4] (after DPDPE or morphine pretreatment) is given as “neutral antagonist property; also recorded: remained neutral”.

Take `N=C(N)Nc1ccc2[nH]c3c(c2c1)CC1(O)C2Cc4ccc(O)c5c4C1(CCN2CC1CC1)C3O5` (stereo not drawn) [GNTI, 5′-guanidinyl-17-(cyclopropylmethyl)-6,7-dehydro-4,5α-epoxy-3,14-dihydroxy-6,7-2′3′-indolomorphinan dihydrochloride]: in data set [1], the “EC50 of decrease of basal GTPγS binding” value is listed as “femtomolar range”, the “change of inverse agonist effects” value is recorded as “increased”, the “pharmacological property at KOR” value was “inverse agonists” and the maximal response (Emax) was approximately 10%.
